Patent US20100035932A1, “NOVEL FORMYL PEPTIDE RECEPTOR LIKE 1 AGONISTS THAT INDUCE MACROPHAGE TUMOR NECROSIS FACTOR ALPHA AND COMPUTATIONAL STRUCTURE-ACTIVITY RELATIONSHIP ANALYSIS OF THEREOF” (priority 2008, published 2010)

Assays:
[1] = test system: J774.A1 macrophages; test: TNF-α production in J774.A1 macrophages (ELISA); format: cell-based, murine; settings: for fold induction at 50 µM: Mus musculus, J774.A1, 24 h, relative fold of activation compared to vehicle (DMSO) control for 50 μM compound, N.A. = no activity was observed, read-out: TNF-α production
[2] = test system: human neutrophils; test: Ca2+ mobilization in human neutrophils (FLIPR Calcium 3); settings: Neutrophil, read-out: [Ca2+]i EC50
[3] = test system: J774.A1 macrophages; test: cells; settings: Mus musculus, J774.A1, read-out: Ca2+ Mobilization EC50, Murine Mφ
Experimental: Murine macrophage J774.A1 cells were cultured in DMEM supplemented with 10% (v/v) heat-inactivated fetal bovine serum (FBS), 10 mM HEPES, 100 μg/ml streptomycin, and 100 U/ml penicillin. Cells were grown to confluence in sterile tissue culture flasks and gently detached by scraping. […] All cell cultures were grown at 37° C. in a humidified atmosphere containing 5% CO2. Cell number and viability were assessed microscopically using trypan blue exclusion.

CCOc1cc(/C=N\NC(=O)c2ccc3c(c2)OCO3)cc(Br)c1O [Compound 18]
fold induction at 50 µM [1]: < 2 | EC50 [2]: 12.2 µM

CN(C)c1ccc(/C=N\NC(=O)c2ccccc2)cc1 [Compound 19]
fold induction at 50 µM [1]: < 2 | EC50 [2]: 14.5 µM

O=C(N/N=C/c1cc(Br)cc(Br)c1OC(=O)c1cccc(F)c1)c1ccc2c(c1)OCO2 [Compound 20]
fold induction at 50 µM [1]: < 2 | EC50 [2]: 18.9 µM

CCOc1cc(/C=N/NC(=O)c2ccc3c(c2)OCCO3)cc(Br)c1O [Compound 21]
fold induction at 50 µM [1]: < 2 | EC50 [2]: 21.9 µM

O=C(N/N=C/c1ccco1)c1ccccc1 [Compound 39]
Determined class of macrophage TNF-α inducing activity ([1]; experimentally determined class): NA (inactive derivatives were placed in the nonactive group labeled “NA”) | EC50 [2]: 28.4 µM

C[C@H](CCC(=O)O)C[C@H](C)C[C@H](C)C(=O)/C=C(\O)[C@H](C)C[C@H](C)C/C=C/[C@@H](C)[C@@H](O)[C@@H](C)[C@@H](O)C[C@@H]1CC[C@@](C)([C@H]2CC[C@@](C)([C@@H](C)O)O2)O1 [ionomycin, reference compound]
EC50 [3]: 0.58 ± 0.3 µM
